Assay results taken from US9745337B2, “Complex compounds of germanium, methods for producing same, and drugs” (priority 2012, dated 2017).
≈ marks a conversion by molar mass, not a printed value. Where two headings read alike, the source gives them in different places.

How the values were obtained:
HSV-1 [1] = details: combination of D609 and acyclovir; cited from earlier work
Varicella-Zoster virus = details: S-acetyl glutathione 0.35 mg/mL with three acyclovir concentrations, strongest at 0.9 mcg/mL acyclovir; cited from earlier work
[2] = tested on: herpes simplex virus (HSV-1); details: cited from earlier work
HSV-1 [3] = details: Vero cells, cited from earlier work
[4] = cited from earlier work
[5] = biopharmaceutical and biorelevant solubility (pH media, FaSSIF, FeSSIF)
Description: (§1) For this purpose, we studied the solubilities of these compounds at various pH values that correspond to the gastrointestinal fluids (for the intestinal fluid: pH is 1.2; for the duodenal fluid: pH 4.4; and for the small intestine fluid: pH 6.8).
(§2) One biopharmaceutical solubility value which allows describing a therapeutic drug (TD) as a compound having “high” or “low” solubility, is the dose/solubility ratio (D/S). The dose/solubility ratio is determined as follows: maximal dose (D) (mg)/water solubility (S) (mg/mL).
(§3) Importantly, biopharmaceutical solubility is not a constant value for a given therapeutic drug (TD); rather, it depends on the maximal registered dosage of an immediate-release TD intended for systemic effects.
(§4) One more biopharmaceutical value is the solubility in biorelevant media. These are dissolution media such that approach the human body fluids (intestinal fluid and gastric fluid) as closely as possible in terms of chemical composition and in terms of physicochemical properties (pH, osmomolality, buffer capacity, and surface tension). The simulation of physiological conditions is provided by introducing surfactants (lecithin and sodium taurocholate) into these media. There are two major types of biorelevant media, namely: an artificial intestinal fluid in an empty stomach (fasted state simulated intestinal fluid (FaSSIF)) and after eating (fed state simulated intestinal fluid (FeSSIF)).

[6] = tested on: herpes simplex viruses type 1 (HSV-1); details: cited from earlier work
HSV-2 = details: Vero cells, cited from earlier work
[7] = in the presence of low, inefficient concentrations of xanthogenate; cited from earlier work
[8] = in vivo; cited from earlier work
[9] = octanol-water partition coefficient log P; assay type: physicochemical; details: n-octanol and water
Description: A criterion that can serve as a measure of the absorption of the solute through the wall of the small intestine is permeability, i.e., the fraction of the substance permeating through the intestinal wall. The physicochemical property of a molecule that makes the greatest contribution to permeability is liphophilicity. A measure of lipophilicity to be used in indirect assessment of intestinal permeability is the octanol-water partition coefficient, log P, which is the logarithm of the ratio of concentrations of an unionized substance in the system of two immiscible liquids (n-octanol and water). […]

[10] = reference for high intestinal permeability; cited from earlier work
HSV-1 “L2/R” virus = assay type: cell-based, herpes simplex virus type I; details: concentrations of 500 mcg/mL and 250 mcg/mL, VERO
Description: The criteria used to evaluate the antiviral activity were: the ability to prevent the development of a virus-induced cytopathic effect and the ability to inhibit reproduction of the virus in the cell culture. Test samples were inserted into the nutrient medium 1 hour after the culture was infected with a certain dose of the virus (the therapeutic scheme). The antiviral activity of the samples and virus-induced cytopathic effects in the cell culture were monitored every day using light microscopy as the degree of morphological alteration of a cell monolayer. The endpoint was on the 4th day of contact of the cells with the infectious material, after a well-defined (100%) cytopathic effect appeared in control samples (positive control). The presence of antiviral activity in samples of organogermanium compounds according to the invention was ascertained as the difference between the viral titers measured in the experiment and in the control.

Description for physchem: as §1, §2, §3, §4

S=C(S)OC1CC2CC1C1CCCC21 (centres unmarked) [D609, tricyclodecan-9-yl-xanthogenate]
survival of animals infected with HSV-1 (HSV-1 [1]): survival of all animals

CC(=O)SC[C@H](NC(=O)CC[C@H](N)C(=O)O)C(=O)NCC(=O)O [S-acetyl glutathione]
effect of compositions with acyclovir against Varicella-Zoster virus (Varicella-Zoster virus): noticeable synergistic effect | effect of combination with acyclovir against HSV-1 ([2]; S-acetyl glutathione combined with acyclovir): strong synergistic effect | concentration from which efficient against HSV-1 [2]: ≥ 0.35 mg/mL

Nc1nc2c(ncn2COCCO)c(=O)[nH]1 [acyclovir, 9-[(2-hydroxyethoxy)methyl] guanine]
effect of combination against HSV-1 (HSV-1 [3]; acyclovir 0.04-0.4 mcg/mL with carbocyclic oxetanocin G 0.01-0.2 mcg/mL): synergistic effect | effect of combination against HSV-1 (HSV-1 [3]; acyclovir 0.04-0.4 mcg/mL with oxetanocin G 0.4-5.4 mcg/mL): synergistic effect | solubility in hydrophobic systems [4]: almost insoluble | solubility (physchem; FaSSIF (fasted state simulated intestinal fluid), fassif): 1440 µg/mL (≈ 6.39 mM) | solubility (physchem; FeSSIF (fed state simulated intestinal fluid), fessif): 1380 µg/mL (≈ 6.13 mM) | solubility (physchem; aqueous dissolution medium at pH 1.2, pH 1.2, simulated gastric fluid): 3500 µg/mL (≈ 15.5 mM) | solubility (physchem; aqueous dissolution medium at pH 4.5, pH 4.4, aqueous buffer): 2600 µg/mL (≈ 11.5 mM) | Solubility (“high”/“low”) ([5]; FaSSIF): “low” | Solubility (“high”/“low”) ([5]; FeSSIF): “low” | Solubility (“high”/“low”) ([5]; pH 1.2): “high” (When D/S≦250 mL, the TD has “high” solubility in the relevant aqueous solution) | Solubility (“high”/“low”) ([5]; pH 4.4-4.5 (4.4 for the tested compounds, 4.5 for acyclovir)): low and “low” | Solubility (“high”/“low”) ([5]; pH 6.8): low and “low” | solubility ([5]; pH 6.8): 2400 µg/mL (≈ 10.7 mM) | concentration for 50% inhibition of the virus-induced cytopathic effect ([6]; acyclovir used alone): 0.4 µg/mL | acyclovir concentration for 50% inhibition of the virus-induced cytopathic effect ([6]; combined with bis-netropsin 0.15 mcg/mL): 0.15 µg/mL | acyclovir concentration for 50% inhibition of the virus-induced cytopathic effect ([6]; combined with netropsin 2.5 mcg/mL): 0.075 µg/mL | effect of combination against HSV-2 (HSV-2; acyclovir 0.1-3.4 mcg/mL with carbocyclic oxetanocin G 0.04-0.54 mcg/mL): synergistic effect | effect of combination against HSV-2 (HSV-2; acyclovir 0.1-3.4 mcg/mL with oxetanocin G 0.4-4 mcg/mL): synergistic effect | increase of acyclovir activity in a cell culture [7]: fivefold | bioavailability [8]: 15-20% | logP [9]: -1.57

Nc1nc2c(ncn2COC(CO)CO)c(=O)[nH]1 [gancyclovir, 9-[(1,3-dihydroxy-2-propoxy)methyl]guanine]
reduction in gancyclovir concentration ([6]; combination with netropsin and bis-netropsin): fivefold | bioavailability [8]: 5%

COCCc1ccc(OCC(O)CNC(C)C)cc1 (centres unmarked) [metoprolol]
log P of reference substance [10]: 1.72

Nc1nc2c(ncn2CCC(CO)CO)c(=O)[nH]1 [pencyclovir, 9-[4-hydroxy-3-(hydroxymethyl)butyl]guanine]
water solubility ([4]; at 20° C.): 1740 µg/mL (≈ 6.87 mM) | bioavailability [8]: 1.5%

CC(C)[C@H](N)C(=O)OCCOCn1cnc2c(=O)[nH]c(N)nc21 [valacyclovir, 2-(guanin-9-ylmethoxy)ethyl L-valine ether]
reduction of the infectious activity of the HSV-1 “L2/R” virus (HSV-1 “L2/R” virus): 1.5 log

Nc1ncnc2c1ncn2[C@@H]1O[C@H](CO)[C@@H](O)[C@@H]1O [vidarabine, 9-β-D-arabinofuranosyl adenine]
water solubility (in words) [4]: poorly soluble
